The record followed here is ChEMBL document CHEMBL3864130, “A novel lead of P-selectin inhibitor: Discovery, synthesis, bioassays and action mechanism” (2016).

Active and inactive are the calls of the source. No cut-off for these calls is given here.

Test [1] addresses T1, P-selectin (Homo sapiens) (UniProt P16109).
T1 sequence (whole entry): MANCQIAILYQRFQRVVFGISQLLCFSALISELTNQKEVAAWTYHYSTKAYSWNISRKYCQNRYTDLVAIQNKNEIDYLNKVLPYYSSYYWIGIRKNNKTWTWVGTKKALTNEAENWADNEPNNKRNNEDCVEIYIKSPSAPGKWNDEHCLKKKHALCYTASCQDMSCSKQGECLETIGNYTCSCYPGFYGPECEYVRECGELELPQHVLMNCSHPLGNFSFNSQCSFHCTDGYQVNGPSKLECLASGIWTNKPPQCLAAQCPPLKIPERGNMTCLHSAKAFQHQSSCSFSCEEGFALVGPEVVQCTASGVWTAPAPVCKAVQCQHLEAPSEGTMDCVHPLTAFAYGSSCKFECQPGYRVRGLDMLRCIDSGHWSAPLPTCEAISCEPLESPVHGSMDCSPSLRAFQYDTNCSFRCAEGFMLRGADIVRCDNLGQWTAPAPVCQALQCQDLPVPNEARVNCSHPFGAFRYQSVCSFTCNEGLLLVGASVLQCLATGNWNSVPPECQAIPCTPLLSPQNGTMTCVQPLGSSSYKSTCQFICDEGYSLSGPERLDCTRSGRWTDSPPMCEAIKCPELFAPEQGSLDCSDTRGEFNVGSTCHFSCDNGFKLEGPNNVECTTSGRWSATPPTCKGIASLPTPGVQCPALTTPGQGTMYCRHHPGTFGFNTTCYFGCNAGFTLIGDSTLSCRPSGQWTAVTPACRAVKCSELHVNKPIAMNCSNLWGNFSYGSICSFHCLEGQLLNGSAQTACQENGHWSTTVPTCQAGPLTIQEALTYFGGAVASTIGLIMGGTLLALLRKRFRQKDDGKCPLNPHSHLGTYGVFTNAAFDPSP
Description: Binding affinity to P-selectin (unknown origin) assessed as maximal absorbance at 295.4 nanometer at 0.18 mM by UV spectroscopy.

Test [2] has as its target T2, P-selectin (Rattus norvegicus) (UniProt P98106).
T2 sequence (whole entry): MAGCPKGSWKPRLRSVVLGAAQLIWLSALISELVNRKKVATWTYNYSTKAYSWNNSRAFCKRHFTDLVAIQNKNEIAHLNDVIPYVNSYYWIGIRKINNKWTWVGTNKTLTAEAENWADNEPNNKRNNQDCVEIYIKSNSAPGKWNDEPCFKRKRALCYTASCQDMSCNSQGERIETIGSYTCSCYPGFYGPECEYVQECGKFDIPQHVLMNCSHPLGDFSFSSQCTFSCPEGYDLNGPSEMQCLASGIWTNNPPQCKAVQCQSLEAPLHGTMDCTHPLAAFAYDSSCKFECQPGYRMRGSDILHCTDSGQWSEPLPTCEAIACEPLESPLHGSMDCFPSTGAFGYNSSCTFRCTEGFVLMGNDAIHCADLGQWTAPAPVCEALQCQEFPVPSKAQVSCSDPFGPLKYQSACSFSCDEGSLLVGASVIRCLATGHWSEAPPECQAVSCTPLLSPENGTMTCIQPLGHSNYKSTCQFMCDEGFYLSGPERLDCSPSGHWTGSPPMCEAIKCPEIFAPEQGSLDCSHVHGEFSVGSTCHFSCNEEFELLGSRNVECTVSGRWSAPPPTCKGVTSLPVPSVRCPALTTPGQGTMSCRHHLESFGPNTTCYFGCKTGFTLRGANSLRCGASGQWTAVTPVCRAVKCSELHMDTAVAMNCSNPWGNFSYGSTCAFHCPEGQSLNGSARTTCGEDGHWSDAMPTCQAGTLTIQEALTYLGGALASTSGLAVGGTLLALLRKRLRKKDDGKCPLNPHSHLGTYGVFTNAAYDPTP
The test is described as follows: Downregulation of P-selectin expression in arachidonic acid-activated Sprague-Dawley rat platelets at 200 to 2000 nM pretreated with platelets followed by arachidonic acid addition measured after 3 mins by ELISA. (In an ELISA, binding on a coated surface is turned into a signal by an enzyme label.)

The target in test [3] is T2, P-selectin (Rattus norvegicus). Description: Downregulation of P-selectin expression in arachidonic acid-activated Sprague-Dawley rat platelets assessed as P-selectin levels pretreated with platelets followed by arachidonic acid addition measured after 3 mins by ELISA.
Test [4] has as its target T1, P-selectin (Homo sapiens). The test is described as follows: Binding affinity to P-selectin (unknown origin) assessed as maximal absorbance at 340.8 nanometer at 0.18 mM by UV spectroscopy.
The test system of test [5] is Mus musculus. The test is described as follows: Antiinflammatory activity in xylene induced ICR mouse ear edema model assessed as decrease in ear swelling pretreated orally for 30 mins followed by topical administration of xylene measured after 2 hrs. The class given is functional.
The target in test [6] is T1, P-selectin (Homo sapiens). Description: Binding affinity to P-selectin (unknown origin) assessed as red shift at 295.4 nanometer at 0.42 mM by UV spectroscopy.
For test [7], the target named is T2, P-selectin (Rattus norvegicus). Description: Downregulation of P-selectin expression in arachidonic acid-activated Sprague-Dawley rat platelets assessed as fluorescence intensity at 2000 nM pretreated for 30 mins followed by arachidonic acid addition measured after 5 mins by phycoerythrin-anti-[…] staining-based flow cytometry (reference value: 1621). On the technique in general: In flow cytometry, cells or beads pass a laser one at a time.

The subject of test [8] is Mus musculus. The test is described as follows: Decrease in serum IL8 level in xylene induced ICR mouse ear edema model administered orally 30 mins prior to topical administration of xylene. The class given is functional.
Test [9] deals with T1, P-selectin (Homo sapiens). The test is described as follows: Binding affinity to P-selectin (unknown origin) assessed as red shift at 352 nanometer at 0.42 mM by UV spectroscopy.
For test [10], the system named is Mus musculus. The test is described as follows: Decrease in serum IL8 level in xylene induced ICR mouse ear edema model at 2 nmol/kg,po pretreated for 30 mins followed by topical administration of xylene. Type of test: functional.
Test [11] deals with T2, P-selectin (Rattus norvegicus). The test is described as follows: Downregulation of P-selectin expression in arachidonic acid-activated Sprague-Dawley rat platelets assessed as fluorescence intensity at 200 nM pretreated for 30 mins followed by arachidonic acid addition measured after 5 mins by phycoerythrin-anti-[…] staining-based flow cytometry (reference value: 1621).

For test [12], the target named is T1, P-selectin (Homo sapiens). Description: Binding affinity to P-selectin (unknown origin) assessed as hyperchromic effect at 340.8 nanometer at 0.42 mM by UV spectroscopy.
Test [13] concerns Rattus norvegicus. Description: Antithrombotic activity in po dosed Sprague-Dawley rat model of thrombosis assessed as inhibition of thrombus formation measured after 30 mins. Type of test: functional.
Test [14] relates to Mus musculus. Description: Antithrombosis activity in ferric chloride induced ICR mouse model of thrombosis assessed as inhibition of thrombus formation at 200 nmol/kg, po measured after 15 mins. Type of test: functional, organism-based.
The target of test [15] is T1, P-selectin (Homo sapiens). Description: Binding affinity to P-selectin (unknown origin) assessed as bathochromic shift at 340.8 nanometer at 0.42 mM by UV spectroscopy.
The species named for test [16] is Rattus norvegicus. The test is described as follows: Potency index, ratio of compound efficacy to aspirin efficacy for antithrombotic activity in Sprague-Dawley rat model of thrombosis. Type of test: functional.
Test [17] addresses T2, P-selectin (Rattus norvegicus). Description: Downregulation of P-selectin expression in arachidonic acid-activated Sprague-Dawley rat platelets assessed as decrease in fluorescence intensity pretreated for 30 mins followed by arachidonic acid addition measured after 5 mins by phycoerythrin-anti-[…] staining-based flow cytometry.
Test [18] is filed under the species Mus musculus. The test is described as follows: Potency index, ratio of compound efficacy to aspirin efficacy in ferric chloride induced ICR mouse model of thrombosis. Type of test: functional.
The target in test [19] is T1, P-selectin (Homo sapiens). The test is described as follows: Binding affinity to P-selectin (unknown origin) assessed as maximal absorbance at 352 nanometer at 0.18 mM by UV spectroscopy.
Test [20] deals with Mus musculus. Description: Decrease in serum TNF-alpha level in xylene induced ICR mouse ear edema model administered orally 30 mins prior to topical administration of xylene. The class given is functional.
In test [21] the test system is Mus musculus. The test is described as follows: Potency index, ratio of compound efficacy to aspirin efficacy in xylene induced ICR mouse ear edema model. Type of test: functional.
For test [22], the target named is T2, P-selectin (Rattus norvegicus). Description: Downregulation of P-selectin expression in arachidonic acid-activated Sprague-Dawley rat platelets assessed as mean fluorescence intensity at 20 nM pretreated for 30 mins followed by arachidonic acid addition measured after 5 mins by phycoerythrin-anti-[…] staining-based flow cytometry (reference value: 1621).

Test [23] has as its system Mus musculus. Description: Antithrombosis activity in ferric cholride induced ICR mouse model of thrombosis assessed as inhibition of thrombus formation at 240 umol/kg, po measured after 15 mins. The class given is functional, organism-based.
Test [24] concerns Mus musculus. Description: Antiinflammatory activity in xylene induced ICR mouse ear edema model assessed as decrease in ear swelling at 0.11 mmol/kg, po pretreated for 30 mins followed by topical administration of xylene measured after 2 hrs. Type of test: functional, organism-based.
Test [25] concerns Rattus norvegicus. Description: Antithrombotic activity in Sprague-Dawley rat model of thrombosis assessed as inhibition of thrombus formation at 167 umol/kg, po measured after 30 mins. Type of test: functional, organism-based.

On to `O=C(O)[C@H](Cc1ccccc1)NCCc1nc(CO)cc2c1[nH]c1ccccc12`, for which the Activity in [1] is 0.451; in [4], 0.355; in the test on Mus musculus [5], “Dose-dependent effect”; in test [6], 1.4 nm; in the test on Mus musculus [8], “Dose-dependent effect”; in [9], 1.4 nm. Also, the Activity is 51.2% in [12], 0.6 nm in test [15], “Dose-dependent effect” in test [17] and 0.339 in [19]. The result (in test [2]; in the test with Mus musculus [10]) was Active. Also, the MEC in [3] is 200 nM; in the test on Mus musculus [8], 2 nmol/kg; in test [17], 20 nM; in the test with Mus musculus [20], 200 nmol/kg. Further, the MED in the test on Mus musculus [5] and with Rattus norvegicus [13] was 20 nmol/kg each time. The values for the Flu intensity in test [7], in test [11] and in [22] were 665, 754 and 871, respectively. In addition, the inhibition entry in the test with Rattus norvegicus [13] was “Dose-dependent effect”. Besides, the inhibition entry with Mus musculus [14] is “Active”. Besides, the Ratio in the test filed under Rattus norvegicus [16] turned out to be 835; in the test filed under Mus musculus [18] it was 1200; with Mus musculus [21], 550.

For the compound `CC(=O)Oc1ccccc1C(=O)O`, the inhibition entry in the test with Mus musculus [23] and with Rattus norvegicus [25] was “Active” in each case. Also, the outcome in the test with Mus musculus [24] was Active.
